The experiment concerns the target 5-hydroxytryptamine receptor 7 (Homo sapiens, UniProt P34969). The experiment can be described thus: Displacement of [3H] D-lysergic acid diethylamide from 5-HT7R (unknown origin) transfected in HEK293 cells incubated for 1.5 hrs by microbeta scintillation counter analysis.

Chain of 5-hydroxytryptamine receptor 7 (P34969 whole entry): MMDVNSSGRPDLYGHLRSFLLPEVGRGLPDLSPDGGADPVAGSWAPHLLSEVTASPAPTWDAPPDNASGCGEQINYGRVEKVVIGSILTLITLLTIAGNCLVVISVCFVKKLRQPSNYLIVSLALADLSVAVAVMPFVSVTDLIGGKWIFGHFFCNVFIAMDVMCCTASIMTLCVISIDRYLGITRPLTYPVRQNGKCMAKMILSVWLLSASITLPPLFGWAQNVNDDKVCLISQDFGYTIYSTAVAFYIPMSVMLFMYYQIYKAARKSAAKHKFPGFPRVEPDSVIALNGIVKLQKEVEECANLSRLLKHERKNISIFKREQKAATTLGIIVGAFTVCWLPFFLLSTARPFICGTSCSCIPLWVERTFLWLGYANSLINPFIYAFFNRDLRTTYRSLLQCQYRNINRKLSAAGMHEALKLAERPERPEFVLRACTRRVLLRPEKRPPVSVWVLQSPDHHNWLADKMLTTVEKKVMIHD

The Ki is the dissociation constant of the complex between target and ligand, obtained from inhibition or displacement. A high value points to lower affinity. For `CNCCc1ccc(Cl)c(-c2ccccc2OC)c1`, the Ki is 2.8 nM.

`CCNCCc1ccc(Cl)c(-c2ccccc2OC)c1`: the inhibition constant (Ki) was 1.58 nM.

The values are drawn from BindingDB's records for doi:10.1021/acs.jmedchem.1c00110 (Korea Institute of Science and Technology, 2021).
